According to US7531646B2, “β-D-ribosidase activity indicators with a chromogenic substrate” (priority 2001, dated 2009):
Where a name gives a salt, the structure may show the parent alone.

How the values were obtained:
Assay in all cases: Substrate hydrolysis on Columbia agar
[1] = tested on: Streptococcus constellatus; type: cell-based; conditions: Streptococcus constellatus NCTC 11325; 300 mg/l; 18 hours
[2] = tested on: Enterococcus faecium; type: cell-based; conditions: 300 mg/l, 18 hours
[3] = tested on: Vibrio vulnificus; type: cell-based; conditions: 300 mg/l, 18 hours
[4] = tested on: Enterococcus casseflavus; type: cell-based; conditions: Enterococcus casseflavus NCTC 12361; 300 mg/l; 18 hours
[5] = tested on: E. coli; type: cell-based; conditions: 300 mg/l, 18 hours
[6] = tested on: A. calcoaceticus; type: cell-based; conditions: A. calcoaceticus ATCC 7844; 300 mg/l; 18 hours
[7] = tested on: Listeria innocua; type: cell-based; conditions: Listeria innocua PHLS wild; 300 mg/l; 18 hours
[8] = tested on: Aeromonas hydrophila; type: cell-based; design: key to the marks not given beside the values; conditions: Aeromonas hydrophila NCTC 8049; 300 mg/l; 18 hours
[9] = tested on: K. oxytoca; type: cell-based; conditions: 300 mg/l, 18 hours
[10] = tested on: Vibrio furnissii; type: cell-based; conditions: Vibrio furnissii NCTC 11218; 300 mg/l; 18 hours
[11] = tested on: Staphylococcus saprophyticus; type: cell-based; conditions: 300 mg/l, 18 hours
[12] = tested on: Enterococcus durans; type: cell-based; conditions: Enterococcus durans NCTC 8307; 300 mg/l; 18 hours
[13] = tested on: C. diphtheriae; type: cell-based, Corynebacterium diphtheriae; conditions: 300 mg/l, 18 hours
[14] = tested on: Haemolytic streptococcus G; type: cell-based; conditions: 300 mg/l, 18 hours
[15] = tested on: Streptococcus vestibularis; type: cell-based; conditions: Streptococcus vestibularis NCTC 12166; 300 mg/l; 18 hours
[16] = tested on: Haemolytic streptococcus C; type: cell-based; conditions: 300 mg/l, 18 hours
[17] = tested on: Salmonella orthmarchen; type: cell-based; conditions: Salmonella orthmarchen SAX 59; 300 mg/l; 18 hours
[18] = tested on: Vibrio metschnikovii; type: cell-based; conditions: Vibrio metschnikovii NCTC 8443; 300 mg/l; 18 hours
[19] = tested on: Listeria ivanovii; type: cell-based; conditions: Listeria ivanovii PHLS wild; 300 mg/l; 18 hours
[20] = tested on: Staphylococcus aureus; type: cell-based; conditions: 300 mg/l, 18 hours
[21] = tested on: E. cloacae; type: cell-based; design: key to the marks not given beside the values; conditions: 300 mg/l, 18 hours
[22] = tested on: K. pneumoniae; type: cell-based; design: key to the marks not given beside the values; conditions: 300 mg/l, 18 hours
[23] = Enterococcus faecium 121285 - wild ′99
[24] = Corynebacterium diphtheria NEQAS
[25] = Haemolytic streptococcus C 67736
[26] = Haemolytic streptococcus C 68350

3′,4′-dihydroxyflavone-4′-β-D-glucopyranoside sodium salt [DHF-glucoside]
Hydrolysis by Gram positive organisms [1]: − | Hydrolysis by Gram positive organisms ([2]; Enterococcus faecium 1): ++ | Hydrolysis by Gram positive organisms ([2]; Enterococcus faecium 2): ++ | Hydrolysis by Gram positive organisms ([2]; Enterococcus faecium 3): ++ | Hydrolysis by Gram positive organisms ([2]; Enterococcus faecium 4): ++ | Hydrolysis by Gram positive organisms ([2]; Enterococcus faecium 5): ++ | Hydrolysis by Gram positive organisms ([2]; Enterococcus faecium 6): ++ | Hydrolysis by Gram positive organisms ([2]; Enterococcus faecium 7): ++ | Hydrolysis by Gram positive organisms [2, 23]: ++ | Hydrolysis by Gram negative bacteria ([3]; Vibrio vulnificus NCTC 11066): + | Hydrolysis by Gram negative bacteria ([3]; Vibrio vulnificus NCTC 11067): + | Hydrolysis by Gram positive organisms [4]: ++ | Hydrolysis by Gram negative bacteria ([5]; E. coli ECO 2): − | Hydrolysis by Gram negative bacteria ([5]; E. coli ECO 3): − | Hydrolysis by Gram negative bacteria ([5]; E. coli ECO 4): − | Hydrolysis by Gram negative bacteria ([5]; E. coli ECO 5): − | Hydrolysis by Gram negative bacteria ([5]; E. coli ECO 6): − | Hydrolysis by Gram negative bacteria ([5]; E. coli ECO 7): − | Hydrolysis by Gram negative bacteria ([5]; E. coli ECO 8): − | Hydrolysis by Gram negative bacteria ([5]; E. coli ECO 9): − | Hydrolysis by Gram negative bacteria ([5]; E. coli ECO 10): − | Hydrolysis by Gram negative bacteria ([5]; E. coli ECO 11): − | Hydrolysis by Gram negative bacteria ([5]; E. coli ECO 12): − | Hydrolysis by Gram negative bacteria ([5]; E. coli NCTC 10418): − | Hydrolysis by Gram negative bacteria [6]: − | Hydrolysis by Gram positive organisms [7]: ++ | Hydrolysis by Gram negative bacteria [8]: ++ | Hydrolysis by Gram negative bacteria ([9]; K. oxytoca KOX 1): + | Hydrolysis by Gram negative bacteria ([9]; K. oxytoca KOX 2): + | Hydrolysis by Gram negative bacteria [10]: − | Hydrolysis by Gram positive organisms ([11]; Staphylococcus saprophyticus 1): − | Hydrolysis by Gram positive organisms ([11]; Staphylococcus saprophyticus 2): − | Hydrolysis by Gram positive organisms ([11]; Staphylococcus saprophyticus 3): − | Hydrolysis by Gram positive organisms ([11]; Staphylococcus saprophyticus 4): − | Hydrolysis by Gram positive organisms ([11]; Staphylococcus saprophyticus 5): − | Hydrolysis by Gram positive organisms [12]: ++ | Hydrolysis by Gram positive organisms ([13]; C. diphtheriae NCTC 3987): − | Hydrolysis by Gram positive organisms ([13]; C. diphtheriae NCTC 10356): − | Hydrolysis by Gram positive organisms ([13]; C. diphtheriae NCTC 11397): − | Hydrolysis by Gram positive organisms [13, 24]: − | Hydrolysis by Gram positive organisms ([14]; Haemolytic streptococcus G 1): − | Hydrolysis by Gram positive organisms ([14]; Haemolytic streptococcus G 2): − | Hydrolysis by Gram positive organisms ([14]; Haemolytic streptococcus G 3): − | Hydrolysis by Gram positive organisms [15]: − | Hydrolysis by Gram positive organisms ([16]; Haemolytic streptococcus C 1): − | Hydrolysis by Gram positive organisms [16, 25]: − | Hydrolysis by Gram positive organisms [16, 26]: − | Hydrolysis by Gram negative bacteria [17]: − | Hydrolysis by Gram negative bacteria [18]: − | Hydrolysis by Gram positive organisms [19]: ++ | Hydrolysis by Gram positive organisms ([20]; Staphylococcus aureus 1): − | Hydrolysis by Gram positive organisms ([20]; Staphylococcus aureus 2): − | Hydrolysis by Gram positive organisms ([20]; Staphylococcus aureus 3): − | Hydrolysis by Gram positive organisms ([20]; Staphylococcus aureus 4): − | Hydrolysis by Gram positive organisms ([20]; Staphylococcus aureus 5): −

O=c1cc(-c2ccc(OC3OC(CO)C(O)C3O)c(O)c2)oc2ccccc12 [DHF-riboside, 3′,4′-dihydroxyflavone-4′-β-D-ribofuranoside Sodium Salt]
Hydrolysis by Gram positive organisms [1]: − | Hydrolysis by Gram positive organisms ([2]; Enterococcus faecium 1): − | Hydrolysis by Gram positive organisms ([2]; Enterococcus faecium 2): − | Hydrolysis by Gram positive organisms ([2]; Enterococcus faecium 3): − | Hydrolysis by Gram positive organisms ([2]; Enterococcus faecium 4): + | Hydrolysis by Gram positive organisms ([2]; Enterococcus faecium 5): − | Hydrolysis by Gram positive organisms ([2]; Enterococcus faecium 6): + | Hydrolysis by Gram positive organisms ([2]; Enterococcus faecium 7): − | Hydrolysis by Gram positive organisms [2, 23]: − | Hydrolysis by Gram negative bacteria ([3]; Vibrio vulnificus NCTC 11066): − | Hydrolysis by Gram negative bacteria ([3]; Vibrio vulnificus NCTC 11067): − | Hydrolysis by Gram positive organisms [4]: − | Hydrolysis by Gram negative bacteria ([5]; E. coli ECO 2): ++ | Hydrolysis by Gram negative bacteria ([5]; E. coli ECO 3): ++ | Hydrolysis by Gram negative bacteria ([5]; E. coli ECO 4): ++ | Hydrolysis by Gram negative bacteria ([5]; E. coli ECO 5): ++ | Hydrolysis by Gram negative bacteria ([5]; E. coli ECO 6): ++ | Hydrolysis by Gram negative bacteria ([5]; E. coli ECO 7): ++ | Hydrolysis by Gram negative bacteria ([5]; E. coli ECO 8): ++ | Hydrolysis by Gram negative bacteria ([5]; E. coli ECO 9): ++ | Hydrolysis by Gram negative bacteria ([5]; E. coli ECO 10): ++ | Hydrolysis by Gram negative bacteria ([5]; E. coli ECO 11): ++ | Hydrolysis by Gram negative bacteria ([5]; E. coli ECO 12): ++ | Hydrolysis by Gram negative bacteria ([5]; E. coli NCTC 10418): ++ | Hydrolysis by Gram negative bacteria [6]: − | Hydrolysis by Gram positive organisms [7]: − | Hydrolysis by Gram negative bacteria [8]: ++ | Hydrolysis by Gram negative bacteria ([9]; K. oxytoca KOX 1): ++ | Hydrolysis by Gram negative bacteria ([9]; K. oxytoca KOX 2): ++ | Hydrolysis by Gram negative bacteria [10]: − | Hydrolysis by Gram positive organisms ([11]; Staphylococcus saprophyticus 1): ++ | Hydrolysis by Gram positive organisms ([11]; Staphylococcus saprophyticus 2): ++ | Hydrolysis by Gram positive organisms ([11]; Staphylococcus saprophyticus 3): ++ | Hydrolysis by Gram positive organisms ([11]; Staphylococcus saprophyticus 4): ++ | Hydrolysis by Gram positive organisms ([11]; Staphylococcus saprophyticus 5): ++ | Hydrolysis by Gram positive organisms [12]: − | Hydrolysis by Gram positive organisms ([13]; C. diphtheriae NCTC 3987): + | Hydrolysis by Gram positive organisms ([13]; C. diphtheriae NCTC 10356): ++ | Hydrolysis by Gram positive organisms ([13]; C. diphtheriae NCTC 11397): ++ | Hydrolysis by Gram positive organisms [13, 24]: ++ | Hydrolysis by Gram positive organisms ([14]; Haemolytic streptococcus G 1): − | Hydrolysis by Gram positive organisms ([14]; Haemolytic streptococcus G 2): − | Hydrolysis by Gram positive organisms ([14]; Haemolytic streptococcus G 3): + | Hydrolysis by Gram positive organisms [15]: − | Hydrolysis by Gram positive organisms ([16]; Haemolytic streptococcus C 1): − | Hydrolysis by Gram positive organisms [16, 25]: − | Hydrolysis by Gram positive organisms [16, 26]: − | Hydrolysis by Gram negative bacteria [17]: ++ | Hydrolysis by Gram negative bacteria ([21]; E. cloacae ECL 1): ++ | Hydrolysis by Gram negative bacteria ([21]; E. cloacae ECL 2): ++ | Hydrolysis by Gram negative bacteria ([21]; E. cloacae ECL 3): ++ | Hydrolysis by Gram negative bacteria ([21]; E. cloacae ECL 4): ++ | Hydrolysis by Gram negative bacteria ([21]; E. cloacae NCTC 11936): ++ | Hydrolysis by Gram negative bacteria ([22]; K. pneumoniae KPN 2): ++ | Hydrolysis by Gram negative bacteria ([22]; K. pneumoniae KPN 3): ++ | Hydrolysis by Gram negative bacteria ([22]; K. pneumoniae KPN 4): ++ | Hydrolysis by Gram negative bacteria ([22]; K. pneumoniae NCTC 10896): ++ | Hydrolysis by Gram negative bacteria [18]: ++ | Hydrolysis by Gram positive organisms [19]: + | Hydrolysis by Gram positive organisms ([20]; Staphylococcus aureus 1): ++ | Hydrolysis by Gram positive organisms ([20]; Staphylococcus aureus 2): ++ | Hydrolysis by Gram positive organisms ([20]; Staphylococcus aureus 3): ++ | Hydrolysis by Gram positive organisms ([20]; Staphylococcus aureus 4): ++ | Hydrolysis by Gram positive organisms ([20]; Staphylococcus aureus 5): ++
